{"source": "patent US7148218B2", "about": "(priority 2001, dated 2006)", "assay_in_all_cases": "cells", "key": {"[1]": {"system": "1A9 ovarian carcinoma", "assay_type": "cell-based, human", "details": "3-day exposure, average of two or more separate experiments", "text": "(§1) As indicated above, all of the compounds of formula I are anti-tumor agents and are, therefore, useful in inhibiting the growth of various lymphomas, sarcomas, carcinomas, myelomas, and leukemia cell lines. […] This assay was adapted from the 60 cell line assay used by the National Cancer Institute (NCI) with the following modifications: • 1) four cell lines representative for the important tumor types, viz., MIP 101 colon carcinoma, HCT 116 colon carcinoma, 1A9 ovarian carcinoma and 1A9PTX22 ovarian carcinoma, were utilized; and 2) a tetrazolium derivative, viz., MTT, was utilized to determine cell density.\n(§2) The ADGMA compares the number of viable cells following a 3-day exposure to a test compound relative to the number of cells present at the time the test compound was added. […] The absorbance at 540 nm (A540) of the formazan derivative is proportional to the number of viable cells. The IC50 for a test compound is the concentration of compound required to reduce the final cell number to 50% of the final control cell number. If cell proliferation is inhibited, the assay further defines compounds as cytostatic (cell number after 3-day compound incubation >cell number at time of compound addition) or cytotoxic (cell number after 3-day compound incubation <cell number at time of compound addition).\n(§3) The HCT 116 colon carcinoma cell line was obtained from the American Type Culture Collection (ATCC, Rockville, Md.). The MIP 101 colon carcinoma cell line was obtained from Dr. Robert Kramer (Bristol Meyers Squibb) and was previously described (Niles R M, Wilhelm S A, Steele G D JR, Burke B, Christensen T, Dexter D, O'Brien M J, Thomas P, Zamcheck N. Isolation and characterization of an undifferentiated human colon carcinoma cell line (MIP-101). Cancer Invest. 1987;5(6):545–52.). The 1A9 and the 1A9PTX22 ovarian tumor cell lines were obtained from Dr. Tito Fojo, Medicine Branch, Division of Clinical Sciences, National Cancer Institute, National Institutes of Health, Bethesda, Md. 20892. The 1A9 is a clone of the ovarian carcinoma cell line, A2780 (Giannakakou P, Sackett, D L, Kang Y-K, Zhan Z, Buters J T M, Fojo T, Poruchynsky MS. Paclitaxel-resistant human ovarian cancer cells have mutant δ-tubulins that impaired paclitaxel-driven polymerization. J. Biol. Chem. 1997, 272(4):17118–17125). The 1A9PTX22 subline was isolated as an individual clone from the 1A9 cell line in a single step selection by exposure to 5 ng/mL paclitaxel in the presence of 5 μg/mL of verapamil. All cell lines were used between passages 4–20 following thawing. MIP-101 colon carcinoma, HCT 116 colon carcinoma, 1A9 ovarian carcinoma and 1A9PTX22 ovarian carcinoma cell lines are maintained and plated in RPMI 1640 medium containing 10% fetal bovine serum.\n(§4) Cells are trypsinized and counted using a hemacytometer to determine cell concentrations. Cells were then plated in their respective maintenance media (200 μL/well) in 96-well plates at the following concentrations: MIP-101, 2000 cells/well; HCT 116, 2000 cells/well; 1A9, 10000 cells/well; and 1A9PTX22, 10000 cells/well. […] Initial cell densities, assayed one day after plating, are roughly 0.10–0.20 A540 absorbance units greater than the media blank. Ninety-six well plates were seeded on day 0 and the test compounds are added on day 1. A “time 0” plate was created that received media only in row A and one cell line/row in rows B–E. The “time 0” plate was processed 24 hours after plating (at the time when drugs were added to experimental plates), as follows: 5 micoliters of the MTT stock solution (0.5 mg/mL in PBS) was added to each well and then incubated for three hours at 37° C., 5% CO2, in a humidified environment. Media was then carefully and completely removed. Plates were allowed to dry in the dark. DMSO (dimethylsulfoxide) was added to each well (100 μL/well) and plates were placed on an orbital shaker for 2 hours. […]"}, "[2]": {"system": "1A9PTX22 ovarian carcinoma", "assay_type": "cell-based, human", "details": "3-day exposure, paclitaxel-resistant subline, average of two or more separate experiments", "text": "as §1, §2, §3, §4"}, "[3]": {"system": "MIP 101 colon carcinoma", "assay_type": "cell-based, human", "details": "3-day exposure, average of two or more separate experiments, read-out: IC50 MIP101", "text": "as §1, §2, §3, §4"}, "[4]": {"system": "HCT 116 colon carcinoma", "assay_type": "cell-based", "details": "3-day exposure, average of two or more separate experiments, read-out: IC50 HCT116", "text": "as §1, §2\nThe HCT 116 colon carcinoma cell line was obtained from the American Type Culture Collection (ATCC, Rockville, Md.). The MIP 101 colon carcinoma cell line was obtained from Dr. Robert Kramer (Bristol Meyers Squibb) and was previously described (Niles R M, Wilhelm S A, Steele G D JR, Burke B, Christensen T, Dexter D, O'Brien M J, Thomas P, Zamcheck N. Isolation and characterization of an undifferentiated human colon carcinoma cell line (MIP-101). Cancer Invest. 1987;5(6):545–52.). […]\nCells are trypsinized and counted using a hemacytometer to determine cell concentrations. […] Initial cell densities, assayed one day after plating, are roughly 0.10–0.20 A540 absorbance units greater than the media blank. […]"}}, "note": "Read-outs that look alike come from different tables or passages of the source."}
{"molecule": "C=C/C=C\\[C@H](C)C(OC(N)=O)C(C)C(O)C(C)C(=O)N(C)C[C@H](C)[C@@H](O)[C@@H](C)/C=C\\C(O)C[C@@H]1OC(=O)[C@H](C)C(O)C1C", "note": "(stereo partly drawn) [Ex. 2, (2R,3S,4R,5S,7S,8Z)-13-[[(2R,3S,4S,5S,6S,7Z)-5-[(aminocarbonyl)oxy]-3-hydroxy-2,4,6-trimethyl-1-oxo-7,9-decadienyl]methylamino]-3,5,7,11-tetrahydroxy-2,4,10,12-tetramethyl-8-tridecenoic acid δ-lactone]", "values": [{"measurement": "IC50", "setting": "[1]; Homo sapiens, 72 h", "result": 4, "unit": "µM"}, {"measurement": "IC50", "setting": "[2]; Homo sapiens, 1A9/ptx-22, 72 h", "result": 6, "unit": "µM"}, {"measurement": "IC50", "setting": "[3]; Homo sapiens, 72 h", "result": 20, "unit": "µM"}, {"measurement": "IC50", "setting": "[4]; Homo sapiens, HCT-116, 72 h", "result": 13, "unit": "µM"}]}
{"molecule": "CC(=O)O[C@H]1C(=O)[C@@]2(C)[C@H]([C@H](OC(=O)c3ccccc3)[C@]3(O)C[C@H](OC(=O)[C@H](O)[C@@H](NC(=O)c4ccccc4)c4ccccc4)C(C)=C1C3(C)C)[C@]1(OC(C)=O)CO[C@@H]1C[C@@H]2O", "note": "[paclitaxel, reference compound]", "values": [{"measurement": "IC50", "setting": "[1]; Homo sapiens, 72 h", "result": 0.047, "unit": "µM"}, {"measurement": "IC50", "setting": "[2]; Homo sapiens, 1A9/ptx-22, 72 h", "result": 0.001, "unit": "µM"}, {"measurement": "IC50", "setting": "[3]; Homo sapiens, 72 h", "result": 0.2, "unit": "µM"}, {"measurement": "IC50", "setting": "[4]; Homo sapiens, HCT-116, 72 h", "result": 0.0003, "unit": "µM"}]}
{"molecule": "(2R,3S,4S,5S,7S,8Z,10S,11S,12S,13Z,16S,17R,18S,19S,20S)-19-[(aminocarbonyl)oxy]-3,5,7,11,17-pentahydroxy-2,3,4,10,12,14,16,18,20-nonamethyl-21-(phenylmethoxy)-8,13-heneicosadienoic acid δ-lactone [Ex. 1]", "values": [{"measurement": "IC50", "setting": "[1]", "result": 0.03, "unit": "µM"}, {"measurement": "IC50", "setting": "[2]", "result": 0.18, "unit": "µM"}, {"measurement": "IC50", "setting": "[3]", "result": 3.8, "unit": "µM"}, {"measurement": "IC50", "setting": "[4]", "result": 0.2, "unit": "µM"}]}
